According to the supplement of paper PMC10307832:

What was measured:
Assay in all cases: relative viability (nuclei count vs DMSO), 5 days (fraction); higher = more cells survive
[1] = compound: Cc1ccc(Nc2nccc(N(C)c3ccc4c(C)n(C)nc4c3)n2)cc1S(N)(=O)=O [Pazopanib] + O=C(c1cc(Cc2n[nH]c(=O)c3ccccc23)ccc1F)N1CCN(C(=O)C2CC2)CC1 [Olaparib] (partner 8 µM)
Method in brief: (§1)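 Values are medians from duplicate plates. Each reflects relative viability, defined as the nuclei count of treated wells over that of vehicle wells. Lung cancer cell lines in 1536-well plates were pin-tool dosed one day after seeding with one drug alone or with a fixed anchor-drug dose plus five library-drug doses (not always all listed) in √10 steps, then fixed, stained and imaged at 4× after 5 days.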

[2] = compound: Cc1ccc(Nc2nccc(N(C)c3ccc4c(C)n(C)nc4c3)n2)cc1S(N)(=O)=O [Pazopanib] + C[C@@H](Oc1cc(-c2cnn(C3CCNCC3)c2)cnc1N)c1c(Cl)ccc(F)c1Cl [Crizotinib] (partner 1 µM)
Method in brief: as §1

[3] = compound: Cc1ccc(C(=O)Nc2ccc(CN3CCN(C)CC3)c(C(F)(F)F)c2)cc1C#Cc1cnc2cccnn12 [Ponatinib] + C[C@]1(O)C[C@@H](c2nc(-c3ccc4ccc(-c5ccccc5)nc4c3)c3c(N)nccn32)C1 [Linsitinib] (partner 1 µM)
Method in brief: as §1

[4] = compound: Cc1ccc(Nc2nccc(N(C)c3ccc4c(C)n(C)nc4c3)n2)cc1S(N)(=O)=O [Pazopanib] + Nc1nc2[nH]cc(CCc3ccc(C(=O)N[C@@H](CCC(=O)O)C(=O)O)cc3)c2c(=O)[nH]1 [Pemetrexed] (partner 0.2 µM)
Method in brief: as §1

Cell Line | relative viability ([1]; first compound 0.03162 µM) | relative viability ([1]; first compound 0.1 µM) | relative viability ([1]; first compound 0.3162 µM) | relative viability ([1]; first compound 1 µM) | relative viability ([2]; first compound 0.01 µM) | relative viability ([2]; first compound 0.03162 µM) | relative viability ([2]; first compound 0.1 µM) | relative viability ([2]; first compound 0.3162 µM) | relative viability ([2]; first compound 1 µM) | relative viability ([3]; first compound 0.002 µM) | relative viability ([3]; first compound 0.006325 µM) | relative viability ([3]; first compound 0.06325 µM) | relative viability ([3]; first compound 0.2 µM) | relative viability ([4]; first compound 0.03162 µM) | relative viability ([4]; first compound 0.1 µM) | relative viability ([4]; first compound 0.3162 µM) | relative viability ([4]; first compound 1 µM) | relative viability ([1]; first compound 0.01 µM) | relative viability ([4]; first compound 0.01 µM)
NCI-H1993 | 1.03 | 1.21 | 1.09 | 1.15 | 0.871 | 0.902 | 0.971 | 0.926 | 0.877 | 0.761 | 0.763 | 0.742 | 0.819 | 0.588 | 0.639 | 0.549 | 0.554 |  | 
NCI-H596 | 0.661 | 0.676 | 0.749 | 0.629 | 0.905 | 1.15 | 1.01 | 0.986 | 0.926 | 1.03 | 1.01 | 1.08 | 0.792 | 0.494 | 0.478 | 0.522 | 0.528 | 0.674 | 0.472
NCI-H650 | 0.411 | 0.394 | 0.391 | 0.37 | 0.755 | 0.907 | 0.608 | 0.784 | 0.603 | 0.641 | 0.83 | 0.809 | 0.743 | 0.922 | 0.863 | 0.884 | 0.798 | 0.404 | 0.871
NCI-H1792 | 0.384 | 0.435 | 0.483 | 0.384 |  | 0.927 | 0.967 | 0.912 | 0.952 | 0.525 | 0.591 | 0.572 | 0.521 | 0.943 | 0.742 | 0.781 | 0.79 |  | 
SW 1573 | 0.511 | 0.52 | 0.531 | 0.517 | 0.813 | 0.878 | 0.974 | 0.836 | 0.757 | 0.838 | 0.775 | 0.777 | 0.819 | 0.899 | 0.792 | 0.857 | 0.861 | 0.471 | 0.831
NCI-H2009 | 0.699 | 0.686 | 0.677 | 0.456 | 1.05 | 1.06 | 1.01 | 1.05 | 0.964 | 1.11 | 1.16 | 1.11 | 1.1 | 1.06 | 0.977 | 0.971 | 0.925 | 0.746 | 1.06
LOU-NH91 | 0.888 | 0.926 | 0.96 | 0.931 | 0.726 | 0.731 | 0.711 | 0.757 | 0.761 | 0.995 | 0.966 | 0.977 | 0.942 | 0.356 | 0.417 | 0.416 | 0.352 | 0.925 | 0.367
NCI-H3122 | 0.572 | 0.607 | 0.636 | 0.599 | 0.263 | 0.247 | 0.273 | 0.278 | 0.348 | 0.982 | 1.02 | 1.01 | 1.06 | 0.188 | 0.188 | 0.191 | 0.212 | 0.7 | 0.207
LCLC-97TM1 | 0.313 | 0.534 | 0.293 | 0.252 |  | 0.309 | 0.277 | 0.297 | 0.427 |  | 0.218 |  | 0.197 | 0.165 | 0.136 | 0.157 | 0.154 |  | 
NCI-H647 | 0.714 | 0.803 | 0.486 | 0.474 | 1 | 1.22 | 1.26 | 1.01 | 1.06 | 1.22 | 1.01 | 1.05 | 1.1 | 0.159 | 0.164 | 0.153 | 0.177 | 0.717 | 0.174
NCI-H838 | 0.843 | 0.776 | 0.816 | 0.82 | 0.821 | 0.951 | 0.982 | 0.912 | 1.08 | 0.939 | 1.05 | 1.19 | 0.858 | 0.231 | 0.265 | 0.252 | 0.227 | 0.745 | 0.272
H3255 | 0.541 | 0.627 | 0.564 | 0.564 | 0.828 | 0.882 | 0.853 | 0.945 | 0.995 | 0.849 | 0.951 | 1.06 | 0.885 | 0.585 | 0.581 | 0.569 | 0.583 | 0.583 | 0.549
NCI-H1437 | 0.645 | 0.649 | 0.653 | 0.551 | 0.936 | 0.935 | 0.953 | 0.807 | 1.05 | 0.999 | 1.05 | 1.05 | 0.915 | 0.333 | 0.328 | 0.296 | 0.321 | 0.644 | 0.327
LU99A | 0.243 | 0.313 | 0.275 | 0.267 | 0.499 | 0.533 | 0.53 | 0.606 | 0.568 | 0.5 | 0.501 | 0.611 | 0.527 | 0.19 | 0.182 | 0.185 | 0.136 |  | 
HCC-827 | 0.644 | 0.691 | 0.706 | 0.673 | 0.999 | 0.976 | 0.906 | 0.902 | 0.922 | 1.03 | 0.968 | 1.03 | 0.966 | 0.211 | 0.259 | 0.273 | 0.247 | 0.675 | 0.272
LK-2 | 0.673 | 0.735 | 0.807 | 0.539 | 0.224 | 0.239 | 0.213 | 0.21 | 0.235 | 0.599 | 0.623 | 0.592 | 0.351 | 0.243 | 0.256 | 0.346 | 0.201 | 0.575 | 0.218
HCC-366 | 0.357 | 0.396 | 0.396 | 0.35 | 0.508 | 0.485 | 0.478 | 0.528 | 0.63 | 0.699 | 0.701 | 1.02 | 0.606 | 0.141 | 0.16 | 0.159 | 0.131 | 0.31 | 0.298
